Measured values published in patent US20230303635A1, “DIAGNOSTIC METHODS AND COMPOSITIONS” (THE REGENTS OF THE UNIVERSITY OF CALIFORNIA, priority 2020, published 2023).
Where two headings read alike, the source gives them in different places.

Columns and labels:
[1] = target: receptor binding domain (RBD) of the SARS-CoV-2 spike protein (Severe acute respiratory syndrome coronavirus 2, UniProt P0DTC2); conditions: cited from earlier work
[2] = Fluorescence spectroscopy of gpW FRET constructs upon pH titration
Description: Accordingly, the fluorescence integration was employed on this variant. Specifically, an extra cysteine was added at the N-terminal (N-ter), e.g., position 1, and the second cysteine was introduced near the C-terminal (C-ter) by replacing the methionine at position 56. These mutations allow us to chemically label the L7H with a FRET-pair to monitor the end-to-end distance of L7H (L7H-FRET). Another FRET-construct was also designed to measure the distance change between the beta-hairpin and the helix-1. […] In this regard, two cysteines were placed on the M18H-F35H variant by adding one cysteine at the N-ter (position 1) and replacing an aspartate (position 29) with cysteine. […] In both constructs, Alexa-488 maleimide and Alexa-594 maleimide are used as the FRET pair as they have many advantageous features. […]
Proteins samples were prepared at different pH by adding the labeled proteins 20 mM citrate buffer for experiments in the 3-6 pH range, phosphate buffer pH 7, and Tris-HCl buffer for the 8-9 pH range. […] Fluorescence emission spectra were recorded between 630 nm and 740 nm by exciting the ATTO 655 at 620 nm or between 490 nm and 720 nm by exciting the Alexa 488 at 480 nm. The pH titration on L7H-helix was triplicated, and L7H-Cter was replicated five times to calculate the standard deviation due to the concentration dependence of the PET fluorescence technique.

Molecule | Kd ([1]; read-out: binding affinity (KD) to SARS-CoV-2 S protein) [nM] | Kd ([1]; read-out: binding affinity (Kd) to SARS-CoV-2 spike protein RBD) [nM] | distance change as a function of pH [2]
GSGSGSTIEEQAKTFLDKANCEAEDLAYQSSLAS [ACE-2 α-helix] | 1000 | 50 | –
L7H: single histidine graft L7H on downhill folding protein gpW (protein, UniProt P68660 1-68, looked up, variant L7H) Head completion protein: MTRQEEHAAARAALHDLMTGKRVATVQKDGRRVEFTATSVSDLKKYIAELEVQTGMTQRRRGPAGFYV | – | – | less than 1 nm
